Measured values taken from patent US6221865A, “Inhibitors of protein isoprenyl transferases” (priority 1998, dated 2001).
Counter-ions that a name gives are not always drawn.

target: T1, protein farnesyltransferase (Rattus norvegicus, UniProt Q02293+Q04631); experiment: Inhibition of farnesyltransferase (scintillation proximity assay, rat brain enzyme, biotin-K Ras B fragment substrate); assay type: biochemical; details: 1 × 10^-5 M (Table 1)
T1 construct: The enzyme is purified according to Reiss, Y., et al., Cell, 62: 81-88 (1990), utilizing steps one through three; from tissue; host or cells: rat brain
Excerpt: The ability of the compounds of the invention to inhibit protein farnesyltransferase or protein geranylgeranyltransferase can be measured according to the method of Moores, et al., J. Biol. Chem. 266: 14603 (1991) or the method of Vogt, et al., J. Biol. Chem. 270:660-664 (1995). In addition, procedures for determination of the inhibition of farnesylation of the oncogene protein Ras are described by Goldstein, et al., J. Biol. Chem., 266:15575-15578 (1991) and by Singh in U.S. Pat. No. 5,245,061.
In addition, in vitro inhibition of protein farnesyltransferase may be measured by the following procedure. Rat brain protein farnesyltransferase activity is measured using an Amersham Life Science commercial scintillation proximity assay kit and substituting a biotin-K Ras B fragment (biotin-[…]Ble-Met-CO2 H), […] final concentration, for the biotin-lamin substrate provided by Amersham. The enzyme is purified according to Reiss, Y., et al., Cell, 62: 81-88 (1990), utilizing steps one through three.
The % inhibition of protein farnesyltransferase was determined for representative compounds of the invention.

T1 sequence (Q02293 whole entry, the tested form may be a part, one chain of several): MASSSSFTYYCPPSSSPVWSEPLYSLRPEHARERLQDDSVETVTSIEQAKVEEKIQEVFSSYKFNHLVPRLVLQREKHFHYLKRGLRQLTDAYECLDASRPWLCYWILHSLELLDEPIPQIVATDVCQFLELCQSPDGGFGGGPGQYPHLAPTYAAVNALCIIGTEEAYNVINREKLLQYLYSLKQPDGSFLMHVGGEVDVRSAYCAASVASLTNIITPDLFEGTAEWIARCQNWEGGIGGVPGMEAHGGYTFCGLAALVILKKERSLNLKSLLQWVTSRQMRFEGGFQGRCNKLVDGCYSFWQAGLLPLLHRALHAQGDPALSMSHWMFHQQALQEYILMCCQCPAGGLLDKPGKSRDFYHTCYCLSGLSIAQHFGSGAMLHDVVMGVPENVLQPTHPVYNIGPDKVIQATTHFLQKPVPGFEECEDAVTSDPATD

In order of rising “% inhibition of farnesyltransferase at 1 × 10^-5 M” value:
1. CSCC[C@H](NC(=O)c1ccc(CN[C@H](CC2CCCCC2)[C@H](O)[C@H](O)CC(C)C)cc1-c1ccccc1)C(=O)O [Example 715]  67%
2. CSCC[C@H](NC(=O)c1ccc(CNc2cc(C)on2)cc1-c1ccccc1)C(=O)O [Example 372]  69%
3. CSCC[C@H](NC(=O)c1ccc(CNc2ccc(C3CCCCC3)cc2)cc1-c1ccccc1)C(=O)O [Example 699]  74%
4. CSCC[C@H](NC(=O)c1ccc(CNCCc2cccs2)cc1-c1ccccc1)C(=O)O [Example 369]  87%

same assay, conditions: 1 × 10^-6 M (Table 2)

In order of rising “% inhibition of farnesyltransferase at 1 × 10^-6 M” value:
1. CSCC[C@H](NC(=O)c1ccc(CNc2ccccc2Oc2ccccc2)cc1-c1ccccc1)C(=O)O [Example 645]  37%
2. CSCC[C@H](NC(=O)c1ccc(CNc2ccccc2N2CCCCC2)cc1-c1ccccc1)C(=O)O [Example 673]  59%
3. CSCC[C@H](NC(=O)c1ccc(CN(CC(c2ccccc2)c2ccccc2)c2ccccc2)cc1-c1ccccc1C)C(=O)O [Example 509]  77%
4. N-[4-(4-phenylcyclohexylidenyl)-2-(2-methylphenyl)benzoyl]methionine lithium salt [Example 789]  86%
5. CSCC[C@H](NC(=O)c1ccc(COC2CCN(Cc3ccccc3)C2)cc1-c1ccccc1C)C(=O)O (stereo partly shown) [Example 987]  93%
6. CSCC[C@H](NC(=O)c1ccc(CSCc2ccccc2C)cc1-c1ccccc1C)C(=O)[O-].[Li+] [Example 557]  93%
7. CSCC[C@H](NC(=O)c1ccc(OC/C=C(\C)CCC=C(C)C)cc1-c1ccccc1C)C(=O)O [Example 546]  97%
8. CSCC[C@H](NC(=O)c1ccc(CN[C@H](CO)CC2CCCCC2)cc1-c1ccccc1C)C(=O)O [Example 617]  99%

same assay, conditions: 1 × 10^-7 M (Table 3)

In order of falling “% inhibition of farnesyltransferase at 1 × 10^-7 M” value:
1. CSCC[C@H](NC(=O)c1ccc(CN[C@H](CCCC(C)C)CC2CCCCC2)cc1-c1ccccc1C)C(=O)O [Example 527]  97%
2. COc1ncc(COCc2ccc(C(=O)N[C@@H](CCSC)C(=O)O)c(-c3ccccc3C)c2)s1 [Example 896]  96%
3. CSCC[C@H](NC(=O)c1ccc(COCc2ccc(C(C)C)cc2)cc1-c1ccccc1C)C(=O)[O-].[Li+] [Example 940]  92%
4. CSCC[C@H](NC(=O)c1ccc(CNCC(=O)N(Cc2ccccc2)Cc2ccccc2)cc1-c1ccccc1C)C(=O)O [Example 914]  91%
5. CSCC[C@H](NC(=O)c1ccc(COCc2cccc(N(C)C)c2)cc1-c1ccccc1C)C(=O)O [Example 941]  90%
6. CSCC[C@H](NC(=O)c1ccc(CSc2ccc(C)cc2C)cc1-c1ccccc1C)C(=O)O [Example 741]  89%
7. CSCC[C@H](NC(=O)c1ccc(COCc2ccc(-c3cccc(F)c3)o2)cc1-c1ccccc1C)C(=O)[O-].[Li+] [Example 436]  89%
8. COc1ccc(COCc2ccc(C(=O)N[C@@H](CCSC)C(=O)[O-])c(-c3ccccc3C)c2)cc1.[Li+] [Example 935]  72%
9. CSCC[C@H](NC(=O)c1ccc(CNc2ccc(N3CCOCC3)cc2)cc1-c1ccccc1C)C(=O)O [Example 863]  72%

same assay, conditions: 1 × 10^-8 M (Table 4)

In order of falling “% inhibition of farnesyltransferase at 1 × 10^-8 M” value:
1. CSCC[C@H](NC(=O)c1ccc(COCc2oc(-c3ccc(Cl)cc3)c(Cl)c2Cl)cc1-c1ccccc1C)C(=O)[O-].[Li+] [Example 829]  92%
2. CCCCS(=O)(=O)N(Cc1ccc(C(=O)N[C@@H](CCSC)C(=O)O)c(-c2ccccc2C)c1)CC1CCCCC1 [Example 996]  80%
3. CSCC[C@H](NC(=O)c1ccc(CN(C(C)=O)C(CC2CCCCC2)CC2CCCCC2)cc1-c1ccccc1C)C(=O)O [Example 909]  79%
4. CSCC[C@H](NC(=O)c1ccc(COCc2occc2-c2ccc(Cl)cc2)cc1-c1ccccc1C)C(=O)[O-].[Li+] [Example 827]  77%
5. CCCCS(=O)(=O)N(CCCc1ccccc1)Cc1ccc(C(=O)N[C@@H](CCSC)C(=O)O)c(-c2ccccc2C)c1 [Example 927]  74%
6. CSCC[C@H](NC(=O)c1ccc(CN(c2ccccc2)S(=O)(=O)c2ccc(C(F)(F)F)cc2)cc1-c1ccccc1C)C(=O)O [Example 780]  71%
7. COc1cccc(COCc2ccc(C(=O)N[C@@H](CCSC)C(=O)[O-])c(-c3ccccc3C)c2)c1.[Li+] [Example 932]  60%

same assay, conditions: read-out: % inhibition at 0.01 μM (**); Table 6, ** = 0.01 μM (footnote); title prints 0.01 mM

In order of falling inhibition at 0.01 µM:
1. CSCC[C@H](NC(=O)c1ccc(CC(CCC2CCCCC2)S(=O)(=O)c2ccccc2)cc1-c1ccccc1C)C(=O)O (stereo partly shown) [Example 1302, N-[4-(4-Cyclohexyl-2-phenylsulfonylbut-1-yl)-2-(2-methylphenyl)benzoyl]methionine Lithium Salt]  93%
2. CSCC[C@H](NC(=O)c1ccc(CN2CCC[C@H]2COC2CCCCC2)cc1-c1ccccc1C)C(=O)O [Example 1116, N-[4-(2(S)-cyclohexyloxymethylpyrrolidin-1-ylmethyl)-2-(2-methylphenyl)benzoyl]methionine]  91%
3. CSCC[C@H](NC(=O)c1ccc(Cc2nnn(CC3CCCCC3)n2)cc1-c1ccccc1C)C(=O)O [Example 1102, N-[4-(2cyclohexylmethyltetrazol-5-ylmethyl)-2-(2-methylphenyl)benzoyl]methionine]  84%
4. CSCC[C@H](NC(=O)c1ccc(C/C(=C\c2cncs2)COc2cc(F)cc(F)c2)cc1-c1ccccc1C)C(=O)O [Example 1163, N-{4-[E-2-(3,5-diflourophenoxy)methyl-3-(thiazol-5-yl)prop-2-enyl]-2-(2-methylphenyl)benzoyl}methionine Lithium Salt]  73%
5. CSCC[C@H](NC(=O)c1ccc(CN2CCSC[C@H]2COCC2CCCCC2)cc1-c1ccccc1C)C(=O)O [Example 1111, N-[4-(3(R)-cyclohexylmethoxymethylthiomorpholin-4-ylmethyl)-2-(2-methylphenyl)benzoyl]methionine]  63%

same assay, conditions: read-out: % inhibition of farnesyltransferase at 1 × 10^-6 M; 1 × 10^-6 M (Table 2)

In order of falling inhibition at 1 µM:
1. CSCC[C@H](NC(=O)c1ccc(CN(C(C)C)C2(Cc3ccccc3)CC2)cc1-c1ccccc1C)C(=O)O [Example 325]  99%
2. Cc1ccccc1-c1cc(CN(C(C)C)C(C)(C)CC2CCCCC2)ccc1C(=O)N[C@@H](CCS(C)(=O)=O)C(=O)O [Example 322]  98%
3. CSCC[C@H](NC(=O)c1ccc(CN(C)C(C)(C)Cc2ccccc2)cc1-c1ccccc1C)C(=O)O [Example 309]  98%
4. CSCC[C@H](NC(=O)c1ccc(/C=C/c2cccc3ccccc23)cc1-c1ccccc1C)C(=O)O [Example 466, N-[4-(2-naphth-1-ylethenyl)-2-(2-methylphenyl)benzoyl]methionine lithium salt]  93%
5. CSCC[C@H](NC(=O)c1ccc(CN2CCC(OCc3ccccc3)C2)cc1-c1ccccc1C)C(=O)O (stereo partly shown) [Example 988, N-[4-(3-benzyloxypyrrolidin-1-ylmethyl)-2-(2-methylphenyl)benzoyl]methionine]  92%
6. CSCC[C@H](NC(=O)c1ccc(/C=C/c2ccc3ccccc3c2)cc1-c1ccccc1C)C(=O)O [Example 465, N-[4-(2-naphth-2-ylethenyl)-2-(2-methylphenyl)benzoyl]methionine]  92%
7. CSCC[C@H](NC(=O)c1ccc(CC(Cc2ccccc2)c2ccccc2)cc1-c1ccccc1C)C(=O)O (stereo partly shown) [Example 572, N-[4-(2,3-diphenylpropan-1-yl)-2-(2-methylphenyl)benzoyl]methionine lithium salt]  91%
8. CSCC[C@H](NC(=O)c1ccc(S(=O)(=O)NC2CCN(Cc3ccccc3)CC2)cc1-c1ccccc1C)C(=O)O [Example 773, lithium salt]  41%
9. CSCC[C@H](NC(=O)c1ccc(-c2ccccc2-c2ccccc2)cc1-c1ccccc1C)C(=O)O [Example 786, N-[4-(2-phenylphenyl)-2-(2-methylphenyl)benzoyl]methionine lithium salt]  34%

same assay, conditions: read-out: % inhibition of farnesyltransferase at 1 × 10^-7 M; 1 × 10^-7 M (Table 3)

Compound `CSCC[C@H](NC(=O)c1ccc(CCc2cccc(Oc3ccccc3)c2)cc1-c1ccccc1C)C(=O)O` [Example 459, N-[4-(2-(3-phenoxyphenyl)ethyl)-2-(2-methylphenyl)benzoyl]methionine lithium salt] has an inhibition at 0.1 µM of 92%.
